Test results: patent publication US20100215580A1, “Compositions and methods for enhancing transport through mucus” (The Johns Hopkins University, priority 2006, published 2010)
“Also recorded” adds a separate entry of the source.

Experiment: Multiple particle tracking of particles in CF sputum with mucolytic pretreatment
Assay type: in vitro ADME, human
Conditions: for effect on overall ensemble averaged transport rates of nanoparticles: CF mucus, 30 mins post-treatment, 200 nm particles (rhDNase), 100 nm particles (0.4 mM NAC)
Experimental: Human respiratory sputum was expectorated from male and female CF patients (ages 18-35). CF sputum samples from multiple patients were pooled, freeze-dried, and reconstituted in sputum buffer by stirring at 4° C. to attain a large volume of homogeneous CF sputum. The volume of sputum buffer added to reconstituted CF sputum samples was determined by mass measurements (the reconstituted CF sputum had the equivalent mass of the fresh CF sputum samples).
[…] Mucus samples (200 μL) were centrifuged and a portion of the supernatant (40 μL) was replaced with mucolytic solution or PBS to maintain the initial concentration of mucus solids and eliminate any dilution effects. The displacements of particles in the no treatment (PBS) control were identical to that of particles embedded in an unprocessed mucus sample, which was not centrifuged. The tracking resolution, evaluated by tracking 500 nm polystyrene probes in glycerol, was […].
The mechanism of particle transport over short and long time scales was classified based on the concept of relative change (RC) of effective diffusivity (Deff). In brief, RC values of particles at short and long time scales were calculated by dividing the Deff of a particle at a probed time scale by the Deff at an earlier reference time scale. By calculating RC values for two time regimes (i.e., short and long time scales), one can obtain the transport mode that describes the particle transport properties over different length and temporal scales. RCshort was defined at τref=0.2 s and τprobe=1 s, whereas RClong was found at reference τref=1 s and τprobe=2s. An RC standard curve, which plots the 95% distribution range of Deff for purely Brownian particles over time scale, was generated based on Monte Carlo simulations and confirmed by tracking polystyrene nanoparticles in glycerol (data not shown). The transport modes of particles that display RC values below the […] range for either short or long time scales were classified as hindered, and the rest were classified as diffusive. Immobile particles are defined as those that display an average MSD smaller than the 10-nm resolution at a time scale of 1 s.

CC(=O)N[C@@H](CS)C(=O)O [N-acetyl-L-cysteine]
enhancement of diffusive fraction of 500 nm PEG-PS compared to no treatment control (500 nm PEG-PS particles, CF mucus pretreated with NAC): 3 fold | increase of transport rates (ensemble geometric mean square displacement) compared to no treatment control (PBS) (500 nm PEG-PS particles, pretreatment of CF mucus with neutralized NAC): 10.7 fold | effect on overall ensemble averaged transport rates of nanoparticles (listed as NAC): significantly improved; also recorded: increased significantly

B1: rhDNase: mucus degrading agent which hydrolyzes linear DNA, used clinically to increase mucus clearance (protein, UniProt P24855 23-282, looked up)
Deoxyribonuclease-1: LKIAAFNIQTFGETKMSNATLVSYIVQILSRYDIALVQEVRDSHLTAVGKLLDNLNQDAPDTYHYVVSEPLGRNSYKERYLFVYRPDQVSAVDSYYYDDGCEPCGNDTFNREPAIVRFFSRFTEVREFAIVPLHAAPGDAVAEIDALYDVYLDVQEKWGLEDVMLMGDFNAGCSYVRPSQWSSIRLWTSPTFQWLIPDSADTTATPTHCAYDRIVVAGMLLRGAVVPDSALPFNFQAAYGLSDQLAQAISDHYPVEVMLK
effect on overall ensemble averaged transport rates of nanoparticles: reduced the overall ensemble averaged transport rates; also recorded: did not correlate to improved particle transport
